{"source": "patent US8080517B2", "about": "“Cell-permeable peptide inhibitors of the JNK signal transduction pathway” (Xigen SA, priority 2005, dated 2011)", "key": {"[1]": {"system": "recombinant JNK1, JNK2, or JNK3 kinases", "assay": "Solid phase kinase assay, phosphorylation of c-Jun, ATF2 and Elk1 by recombinant JNKs", "assay_type": "biochemical", "conditions": "GST-Jun (aa 1-73), 0-250 μM dosage study", "procedure": "The effects of the peptides on JNKs-mediated phosphorylation of their target transcription factors were investigated in vitro. Recombinant and non activated JNK1, JNK2 and JNK3 were produced using a TRANSCRIPTION AND TRANSLATION rabbit reticulocyte lysate kit (Promega) and used in solid phase kinase assays with c-Jun, ATF2 and Elk1, either alone or fused to glutathione-S-transferase (GST), as substrates. Dose response studies were performed wherein inventive L-TAT or L-TAT-IB1(s) peptides (0-25 μM) were mixed with the recombinant JNK1, JNK2, or JNK3 kinases in reaction buffer (20 mM Tris-acetate, 1 mM EGTA, 10 mM p-nitrophenyl-phosphate (pNPP), 5 mM sodium pyrophosphate, 10 mM p-glycerophosphate, 1 mM dithiothreitol) for 20 minutes. The kinase reactions were then initiated by the addition of 10 mM MgCl2 and 5 pCi […] and 1 μg of either GST-Jun (aa 1-89), GST-AFT2 (aa 1-96) or GST-ELK1 (aa 307-428). GST-fusion proteins were purchased from Stratagene (La Jolla, Calif.).\nTen μL of glutathione-agarose beads were also added to the mixture. Reaction products were then separated by SDS-PAGE on a denaturing 10% polyacrylamide gel. Gels were dried and subsequently exposed to X-ray films (Kodak). […] The ability of D-TAT, inventive D-TAT-IB1(s) and inventive L-TAT-IB1(s) peptides (0-250 μM dosage study) to inhibit GST-Jun (aa 1-73) phosphorylation by recombinant JNK1, JNK2, and JNKS by were analyzed as described above. Overall, D-TAT-IB1(s) peptide decreased JNK-mediated phosphorylation of c-Jun, but at levels approximately 10-20 fold less efficiently than L-TAT-IB1(s)."}, "[2]": {"assay": "Focal cerebral ischemia, permanent MCAO model, lesion volume", "assay_type": "in vivo, 12-days-old rats", "source_text": "Focal cerebral ischemia was induced in 12-days-old rats. Pups were anesthetized in an induction chamber with 2% isoflurane and during the operation anaesthesia was maintained using a mask under 2% isoflurane. MCAO was induced by electrocoagulating a main branch of the middle cerebral artery (MCA). Rats were placed on the right side, and an oblique dermal incision was made between the ear and eye. After excision of the temporal muscle, the cranial bone was removed from the frontal suture to a level below the zygomatic arch. […] The cranial skin incision was then closed. Rat pups were then placed in an incubator maintained at 37° C. until they awoke, and were then transferred to their mother.\n6 hours later an inventive chimeric D-TAT-IB1(s) peptide according to SEQ ID NO: 11 was injected intraperitoneally. 24 hours after the coagulation, the rats were anesthetized with chloral hydrate and perfused through the ascending aorta with 4% paraformaldehyde in PBS. Brains were then removed and kept for 2 hours in the same fixative solution, and placed in a gradient of 30% sucrose in PBS for about 15 hours at 4° C. Brains were frozen in isopentane (−40° C.) and stored at −20° C. Coronal cryostat sections of 50 µm were collected on glass slides. The sections were stained with cresyl violet. Each tenth section was analyzed and the total volume of the lesion was calculated using the Neuroleucida programme. In the control group A, the mean lesion volume was 21.47 mm^3. […] A significant statistic difference is observed between group A and groups C, E and F (one-tailed t-test, p=0.030, p=0.002, p=0.001 respectively)."}, "[3]": {"system": "endogenous JNK activity in HepG2 cells", "assay": "Inhibition of endogenous IL-1β-induced JNK activity in HepG2 cells, AlphaScreen all-in one well approach", "assay_type": "cell-based", "conditions": "FIG. 6 panel d", "procedure": "HepG2 cells were seeded at 3,000 cells/well the day prior the experiment. Then, increasing concentrations of either interleukin-1β [IL-1β(▪)] or tumor necrosis factor α[TNFα(●)] (a) were added to activate JNK for 30 minutes. Cells were lysed in 20 mM Hepes, 0.5% Tween pH 7.4 and processed for AlphaScreen JNK. (b) Z′ for the JNK activity induced by 10 ng/ml IL-1β and measured in 384 wells/plate (n=96). (c) Inhibition of endogenous IL-1β-induced JNK activity with chemical JNK inhibitors [staurosporin (∘) and SP600125 (●)]. (d) Effect of peptidic inhibitors L-TAT-IB1(s) according to SEQ ID NO: 9 [here abbreviated as L-JNKi (▪)) and D-TAT-IB1(s) according to SEQ ID NO: 11 (here abbreviated as D-JNKi (□)) and JBDs (●) (corresponds to L-JNKI without the TAT sequence)] on […] dependent JNK activity. All panels are representative of three independent experiments (n=3).\nMethods: Alphascreen Kinase Assay\nPrinciple: AlphaScreen is a non-radioactive bead-based technology used to study biomolecular interactions in a microplate format. The acronym ALPHA stands for Amplified Luminescence Proximity Homogenous Assay. […]\nKinase reagents (B-GST-cJun, anti P-cJun antibody and active JNKS) were first diluted in kinase buffer (20 mM Tris-HCl pH 7.6, 10 mM MgCl2, 1 mM DTT, 100 μM Na3VO4, 0.01% Tween-20) and added to wells (15 μl). […] AlphaScreen signal was analyzed directly on the Fusion or En Vision apparatus."}}, "note": "Where a SMILES comes first, the peptide text is derived from it. [ ]: non-standard residue; d: D form.", "data": [{"smiles": "CC(C)C[C@@H](NC(=O)[C@@H](Cc1ccccc1)NC(=O)[C@H]1CCCN1C(=O)[C@@H](CCC(N)=O)NC(=O)[C@H](NC(=O)[C@H]1CCCN1C(=O)[C@@H](CCCNC(=N)N)NC(=O)[C@@H](CO)NC(=O)[C@@H](CCC(N)=O)NC(=O)[C@H](N)CC(=O)O)C(C)C)C(=O)N[C@H](CC(N)=O)C(=O)N[C@H](CC(C)C)C(=O)N[C@@H](C(=O)N[C@@H](C(=O)N1CCC[C@@H]1C(=O)N[C@H](CCCNC(=N)N)C(=O)N[C@H](CCCCN)C(=O)N1CCC[C@@H]1C(=O)N[C@H](CCCNC(=N)N)C(=O)N1CCC[C@@H]1C(=O)N1CCC[C@@H]1C(=O)N[C@H](CCCNC(=N)N)C(=O)N[C@H](CCCNC(=N)N)C(=O)N[C@H](CCCNC(=N)N)C(=O)N[C@H](CCC(N)=O)C(=O)N[C@H](CCCNC(=N)N)C(=O)N[C@H](CCCNC(=N)N)C(=O)N[C@H](CCCCN)C(=O)N[C@H](CCCCN)C(=O)N[C@H](CCCNC(=N)N)C(=O)NCC(=O)O)[C@H](C)O)[C@H](C)O", "note": "[D-TAT-IB1(s)] (H-[dD][dQ][dS][dR][dP][dV][dQ][dP][dF][dL][dN][dL][dT][dT][dP][dR][dK][dP][dR][dP][dP][dR][dR][dR][dQ][dR][dR][dK][dK][dR]G-OH)", "values": [{"measurement": "efficiency in decreasing JNK-mediated phosphorylation of c-Jun, fold less efficient than L-TAT-IB1(s)", "setting": "[1]", "value": "10-20 fold"}, {"measurement": "mean lesion volume of all treated groups versus control group", "setting": "[2]; control group mean 21.47 mm^3", "value": "lower mean than the control group"}, {"measurement": "cerebral protection (lesion volume) compared to saline group", "setting": "[2]; doses 1 mg/kg, 0.003 mg/kg and 0.0003", "value": "not large enough to reach a significant difference"}, {"measurement": "dose of best protection", "setting": "[2]; i.p. 6 hours after MCAO", "value": 0.03, "unit": "mg/kg"}, {"measurement": "cerebral protection (lesion volume)", "setting": "[2]; i.p. 6 hours after MCAO, doses 11 mg/kg, 3 mg/kg, 0.3 mg/kg and 0.03 mg/kg, 24 hours after coagulation", "value": "contributes to a cerebral protection"}, {"measurement": "inhibition of endogenous JNK activity", "setting": "[3]", "value": "effectively inhibits JNK activity, even better than L-TAT-IB1(s)"}]}]}
